Here are results for two compounds from patent publication US20070212717A1, “Method for Inhibiting Hepatitis C Virus Replication” (priority 2006, published 2007).

One data set concerns hepatitis C virus. The conditions noted are these: two day clinical trial; cited from earlier work.
The subject of the next data set is PIK4CA transcript. Briefly: siRNA transfection of MP1 cells, real-time RT-PCR of PIK4CA transcript levels. Format: cell-based, human. An excerpt: In order to confirm that knockdown of PI4K inhibits HCV RNA replication, an independent method of suppressing the host gene using siRNA synthetic oligonucleotides, is implemented. […] The effect is specific in that transfection of non-specific oligonucleotides elicits no effect on HCV RNA replication. For the siRNA oligo transfection experiments, the MP1 cells (human hepatoma Huh-7 cell line harboring HCV RNA replicon with a luciferase reporter gene, as described above) are also used. Cells are maintained in DMEM High glucose (Wisent Inc.) supplemented with 10% fetal bovine serum (FBS; HyClone) containing neomycin (250 μg/ml) (Geneticin; Invitrogen). The assay medium lacks the neomycin. […]
The negative control corresponds to a no match NS5B sequence (AAGAGAGUCAGUCAGCUAAUCAC) [SEQ ID NO. […] Moreover, RNA is also isolated (using the 96-well Qiagen extraction method as described in example 1) from a replicate plate of transfected cells such that real-time RT-PCR quantifying HCV replicon copy number (as described in example 1) and cellular transcript RNA levels are performed. The method of quantifying host transcript RNA levels is similar to HCV RNA quantification except that the primers and the TaqMan probe are specific for the PIK4CA gene. […]
A standard curve for a relative quantification of PIK4CA transcript expression per μg total RNA is established for each transcript. […]

The next data set deals with HCV RNA replicon. The data set can be described thus: siRNA transfection of MP1 cells, HCV replicon luciferase assay. The settings on record: luciferase reporter or HCV RNA. Format: cell-based, hepatitis C virus. As to the method:
The “Luciferase assay system” from Promega is used to measure firefly luciferase (reporter) expression in the MP1 cell line in a 96-well format with the following protocol: • Prepare the Luciferase assay reagent by adding Luciferase assay buffer to the vial containing the lyophilized Luciferase assay substrate • Prepare 1× Luciferase cell culture lysis reagent by adding 4 volumes of water to 1 volume of 5× lysis buffer • Carefully remove the assay medium from cells • Rinse cells with 100 μl PBS buffer being careful to not dislodge attached cells • A black backing tape (Packard) is applied on bottom side of the 96-well black clear bottom plate. • Aliquot 30 μl/well of 1× Luciferase cell culture lysis reagent • Incubate at room temperature 10 minutes minimum • Aliquot 150 μl/well of Luciferase assay reagent and immediately measure the light produced on a TopCount NXT Instrument (Packard) (count time=2 s/well) […]
The negative control corresponds to a no match NS5B sequence (AAGAGAGUCAGUCAGCUAAUCAC) [SEQ ID NO. […] Moreover, RNA is also isolated (using the 96-well Qiagen extraction method as described in example 1) from a replicate plate of transfected cells such that real-time RT-PCR quantifying HCV replicon copy number (as described in example 1) and cellular transcript RNA levels are performed. […]

On to `COc1ccc2c(O[C@@H]3C[C@H]4C(=O)N[C@]5(C(=O)O)C[C@H]5/C=C\CCCCC[C@H](NC(=O)OC5CCCC5)C(=O)N4C3)cc(-c3csc(NC(C)C)n3)nc2c1` [BILN2061], for which the “viral loads in patients infected with the hepatitis C virus” value in the data set on hepatitis C virus was “effective in rapidly reducing viral loads”. In addition, the “effect on PIK4CA transcript levels” value in the data set on PIK4CA transcript (controls (siRNA 10 nM; BILN 2061 100 nM)) is “no effect”.
On to “PIK4CA siRNA #9: siRNA (si Genome duplex, Dharmacon) with defined sequence # 9 targeting a segment on the host transcript (GCAGAAATTTGGCCTGTTT; listed as DNA, further chemistry not given here)”, for which the “inhibition of HCV replicon levels” value in the data set with HCV RNA replicon is reported as “proportionally lower inhibition”. Moreover, in the data set on PIK4CA transcript (10 nM siRNA, RT-PCR, relative to DharmaFECT only), the “reduction of PIK4CA transcript levels” value was about 25%.
